Measured values: the supplement of paper PMC10307832

Experiments:
Experiment in all cases: relative viability (nuclei count vs DMSO), 5 days (fraction); higher = more cells survive
Bortezomib + Crizotinib = compound: CC(C)C[C@H](NC(=O)[C@H](Cc1ccccc1)NC(=O)c1cnccn1)B(O)O [Bortezomib] + C[C@@H](Oc1cc(-c2cnn(C3CCNCC3)c2)cnc1N)c1c(Cl)ccc(F)c1Cl [Crizotinib] (partner 1 µM)
In short: (§1)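 A single step with final 0.05% Triton X-100, 1% formaldehyde and 1 ug/ml Hoechst fixed the cells and stained nuclei 5 days after treatment. Lung cancer cell lines in 1536-well plates had been treated by pin tool the day after seeding with one drug alone or a fixed anchor-drug dose plus five library-drug doses (not always all listed) in √10 steps, and nuclei were counted on 4× images. Relative viability is the ratio of nuclei in treated wells to nuclei in vehicle wells, taken as the median of duplicate plates.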

Bortezomib + Decitabine = compound: CC(C)C[C@H](NC(=O)[C@H](Cc1ccccc1)NC(=O)c1cnccn1)B(O)O [Bortezomib] + Nc1ncn([C@H]2C[C@H](O)[C@@H](CO)O2)c(=O)n1 [Decitabine] (partner 2 µM)
In short: as §1

Obatoclax + OSI-027 = compound: COC1=CC(c2cc3ccccc3[nH]2)=N/C1=C\c1[nH]c(C)cc1C [Obatoclax] + COc1cccc2cc(-c3nc([C@H]4CC[C@H](C(=O)O)CC4)n4ncnc(N)c34)[nH]c12 [OSI-027] (partner 0.5 µM)
In short: as §1

Obatoclax + Linsitinib = compound: COC1=CC(c2cc3ccccc3[nH]2)=N/C1=C\c1[nH]c(C)cc1C [Obatoclax] + C[C@]1(O)C[C@@H](c2nc(-c3ccc4ccc(-c5ccccc5)nc4c3)c3c(N)nccn32)C1 [Linsitinib] (partner 1 µM)
In short: as §1

201T
relative viability (Bortezomib + Crizotinib; first compound 0.0002 µM): 0.999 | relative viability (Bortezomib + Crizotinib; first compound 0.000632 µM): 1.07 | relative viability (Bortezomib + Crizotinib; first compound 0.002 µM): 1.02 | relative viability (Bortezomib + Crizotinib; first compound 0.006325 µM): 1.02 | relative viability (Bortezomib + Crizotinib; first compound 0.02 µM): 0.32 | relative viability (Bortezomib + Decitabine; first compound 0.0002 µM): 0.846 | relative viability (Bortezomib + Decitabine; first compound 0.000632 µM): 0.859 | relative viability (Bortezomib + Decitabine; first compound 0.002 µM): 0.894 | relative viability (Bortezomib + Decitabine; first compound 0.006325 µM): 0.819 | relative viability (Bortezomib + Decitabine; first compound 0.02 µM): 0.274 | relative viability (Obatoclax + OSI-027; first compound 0.01 µM): 0.762 | relative viability (Obatoclax + OSI-027; first compound 0.03162 µM): 0.786 | relative viability (Obatoclax + OSI-027; first compound 0.1 µM): 0.773 | relative viability (Obatoclax + OSI-027; first compound 0.3162 µM): 0.748 | relative viability (Obatoclax + OSI-027; first compound 1 µM): 0.822 | relative viability (Obatoclax + Linsitinib; first compound 0.01 µM): 1.04 | relative viability (Obatoclax + Linsitinib; first compound 0.03162 µM): 1.01 | relative viability (Obatoclax + Linsitinib; first compound 0.1 µM): 1.02 | relative viability (Obatoclax + Linsitinib; first compound 0.3162 µM): 1.06 | relative viability (Obatoclax + Linsitinib; first compound 1 µM): 1.03

A549
relative viability (Bortezomib + Crizotinib; first compound 0.0002 µM): 0.767 | relative viability (Bortezomib + Crizotinib; first compound 0.000632 µM): 0.631 | relative viability (Bortezomib + Crizotinib; first compound 0.002 µM): 0.789 | relative viability (Bortezomib + Crizotinib; first compound 0.006325 µM): 0.0392 | relative viability (Bortezomib + Crizotinib; first compound 0.02 µM): 0.0432 | relative viability (Bortezomib + Decitabine; first compound 0.0002 µM): 0.294 | relative viability (Bortezomib + Decitabine; first compound 0.000632 µM): 0.205 | relative viability (Bortezomib + Decitabine; first compound 0.002 µM): 0.339 | relative viability (Bortezomib + Decitabine; first compound 0.006325 µM): 0.201 | relative viability (Bortezomib + Decitabine; first compound 0.02 µM): 0.248 | relative viability (Obatoclax + Linsitinib; first compound 0.01 µM): 0.601 | relative viability (Obatoclax + Linsitinib; first compound 0.03162 µM): 0.55 | relative viability (Obatoclax + Linsitinib; first compound 0.1 µM): 0.621 | relative viability (Obatoclax + Linsitinib; first compound 0.3162 µM): 0.635 | relative viability (Obatoclax + Linsitinib; first compound 1 µM): 0.626

A-427
relative viability (Bortezomib + Crizotinib; first compound 0.0002 µM): 0.867 | relative viability (Bortezomib + Crizotinib; first compound 0.000632 µM): 0.859 | relative viability (Bortezomib + Crizotinib; first compound 0.002 µM): 0.866 | relative viability (Bortezomib + Crizotinib; first compound 0.006325 µM): 0.521 | relative viability (Bortezomib + Crizotinib; first compound 0.02 µM): 0.0943 | relative viability (Bortezomib + Decitabine; first compound 0.0002 µM): 0.531 | relative viability (Bortezomib + Decitabine; first compound 0.000632 µM): 0.536 | relative viability (Bortezomib + Decitabine; first compound 0.002 µM): 0.579 | relative viability (Bortezomib + Decitabine; first compound 0.006325 µM): 0.247 | relative viability (Bortezomib + Decitabine; first compound 0.02 µM): 0.18 | relative viability (Obatoclax + OSI-027; first compound 0.01 µM): 0.513 | relative viability (Obatoclax + OSI-027; first compound 0.03162 µM): 0.462 | relative viability (Obatoclax + OSI-027; first compound 0.1 µM): 0.49 | relative viability (Obatoclax + OSI-027; first compound 0.3162 µM): 0.418 | relative viability (Obatoclax + OSI-027; first compound 1 µM): 0.399 | relative viability (Obatoclax + Linsitinib; first compound 0.01 µM): 1.07 | relative viability (Obatoclax + Linsitinib; first compound 0.03162 µM): 0.775 | relative viability (Obatoclax + Linsitinib; first compound 0.1 µM): 1.11 | relative viability (Obatoclax + Linsitinib; first compound 0.3162 µM): 1.15 | relative viability (Obatoclax + Linsitinib; first compound 1 µM): 1.13

ABC-1
relative viability (Bortezomib + Crizotinib; first compound 0.0002 µM): 1.1 | relative viability (Bortezomib + Crizotinib; first compound 0.000632 µM): 0.693 | relative viability (Bortezomib + Crizotinib; first compound 0.002 µM): 0.22 | relative viability (Bortezomib + Crizotinib; first compound 0.006325 µM): 0.178 | relative viability (Bortezomib + Crizotinib; first compound 0.02 µM): 0.195 | relative viability (Bortezomib + Decitabine; first compound 0.0002 µM): 1.09 | relative viability (Bortezomib + Decitabine; first compound 0.000632 µM): 1 | relative viability (Bortezomib + Decitabine; first compound 0.002 µM): 0.389 | relative viability (Bortezomib + Decitabine; first compound 0.006325 µM): 0.284 | relative viability (Bortezomib + Decitabine; first compound 0.02 µM): 0.287 | relative viability (Obatoclax + OSI-027; first compound 0.01 µM): 0.576 | relative viability (Obatoclax + OSI-027; first compound 0.03162 µM): 0.571 | relative viability (Obatoclax + OSI-027; first compound 0.1 µM): 0.424 | relative viability (Obatoclax + OSI-027; first compound 0.3162 µM): 0.373 | relative viability (Obatoclax + OSI-027; first compound 1 µM): 0.276 | relative viability (Obatoclax + Linsitinib; first compound 0.01 µM): 0.619 | relative viability (Obatoclax + Linsitinib; first compound 0.03162 µM): 0.768 | relative viability (Obatoclax + Linsitinib; first compound 0.1 µM): 0.815 | relative viability (Obatoclax + Linsitinib; first compound 0.3162 µM): 0.928 | relative viability (Obatoclax + Linsitinib; first compound 1 µM): 0.372

BEN
relative viability (Bortezomib + Crizotinib; first compound 0.0002 µM): 0.78 | relative viability (Bortezomib + Crizotinib; first compound 0.000632 µM): 0.821 | relative viability (Bortezomib + Crizotinib; first compound 0.002 µM): 0.58 | relative viability (Bortezomib + Crizotinib; first compound 0.006325 µM): 0.447 | relative viability (Bortezomib + Crizotinib; first compound 0.02 µM): 0.134 | relative viability (Bortezomib + Decitabine; first compound 0.0002 µM): 0.716 | relative viability (Bortezomib + Decitabine; first compound 0.000632 µM): 0.801 | relative viability (Bortezomib + Decitabine; first compound 0.002 µM): 0.678 | relative viability (Bortezomib + Decitabine; first compound 0.006325 µM): 0.522 | relative viability (Bortezomib + Decitabine; first compound 0.02 µM): 0.337 | relative viability (Obatoclax + OSI-027; first compound 0.01 µM): 0.28 | relative viability (Obatoclax + OSI-027; first compound 0.03162 µM): 0.297 | relative viability (Obatoclax + OSI-027; first compound 0.3162 µM): 0.283 | relative viability (Obatoclax + OSI-027; first compound 1 µM): 0.32 | relative viability (Obatoclax + Linsitinib; first compound 0.01 µM): 0.948 | relative viability (Obatoclax + Linsitinib; first compound 0.03162 µM): 0.828 | relative viability (Obatoclax + Linsitinib; first compound 0.1 µM): 0.913 | relative viability (Obatoclax + Linsitinib; first compound 0.3162 µM): 0.948 | relative viability (Obatoclax + Linsitinib; first compound 1 µM): 0.796

CAL-12T
relative viability (Bortezomib + Crizotinib; first compound 0.0002 µM): 0.888 | relative viability (Bortezomib + Crizotinib; first compound 0.000632 µM): 0.551 | relative viability (Bortezomib + Crizotinib; first compound 0.002 µM): 0.61 | relative viability (Bortezomib + Crizotinib; first compound 0.006325 µM): 0.241 | relative viability (Bortezomib + Crizotinib; first compound 0.02 µM): 0.1 | relative viability (Obatoclax + OSI-027; first compound 0.01 µM): 0.62 | relative viability (Obatoclax + OSI-027; first compound 0.03162 µM): 0.609 | relative viability (Obatoclax + OSI-027; first compound 0.1 µM): 0.829 | relative viability (Obatoclax + OSI-027; first compound 0.3162 µM): 0.138 | relative viability (Obatoclax + OSI-027; first compound 1 µM): 0.128 | relative viability (Obatoclax + Linsitinib; first compound 0.01 µM): 0.646 | relative viability (Obatoclax + Linsitinib; first compound 0.03162 µM): 0.773 | relative viability (Obatoclax + Linsitinib; first compound 0.1 µM): 0.919 | relative viability (Obatoclax + Linsitinib; first compound 0.3162 µM): 0.809 | relative viability (Obatoclax + Linsitinib; first compound 1 µM): 0.526

COR-L23
relative viability (Bortezomib + Crizotinib; first compound 0.0002 µM): 0.669 | relative viability (Bortezomib + Crizotinib; first compound 0.000632 µM): 0.581 | relative viability (Bortezomib + Crizotinib; first compound 0.002 µM): 0.595 | relative viability (Bortezomib + Crizotinib; first compound 0.006325 µM): 0.0447 | relative viability (Bortezomib + Crizotinib; first compound 0.02 µM): 0.0472 | relative viability (Bortezomib + Decitabine; first compound 0.0002 µM): 0.439 | relative viability (Bortezomib + Decitabine; first compound 0.000632 µM): 0.417 | relative viability (Bortezomib + Decitabine; first compound 0.002 µM): 0.396 | relative viability (Bortezomib + Decitabine; first compound 0.006325 µM): 0.0939 | relative viability (Bortezomib + Decitabine; first compound 0.02 µM): 0.0825 | relative viability (Obatoclax + OSI-027; first compound 0.01 µM): 0.715 | relative viability (Obatoclax + OSI-027; first compound 0.03162 µM): 0.853 | relative viability (Obatoclax + OSI-027; first compound 0.1 µM): 0.786 | relative viability (Obatoclax + OSI-027; first compound 0.3162 µM): 0.405 | relative viability (Obatoclax + OSI-027; first compound 1 µM): 0.177 | relative viability (Obatoclax + Linsitinib; first compound 0.01 µM): 0.848 | relative viability (Obatoclax + Linsitinib; first compound 0.03162 µM): 1 | relative viability (Obatoclax + Linsitinib; first compound 0.1 µM): 0.767 | relative viability (Obatoclax + Linsitinib; first compound 0.3162 µM): 0.29 | relative viability (Obatoclax + Linsitinib; first compound 1 µM): 0.173

COR-L 105
relative viability (Bortezomib + Crizotinib; first compound 0.0002 µM): 0.673 | relative viability (Bortezomib + Crizotinib; first compound 0.000632 µM): 0.741 | relative viability (Bortezomib + Crizotinib; first compound 0.002 µM): 0.577 | relative viability (Bortezomib + Crizotinib; first compound 0.006325 µM): 0.206 | relative viability (Bortezomib + Crizotinib; first compound 0.02 µM): 0.215 | relative viability (Bortezomib + Decitabine; first compound 0.0002 µM): 0.695 | relative viability (Bortezomib + Decitabine; first compound 0.000632 µM): 0.614 | relative viability (Bortezomib + Decitabine; first compound 0.002 µM): 0.526 | relative viability (Bortezomib + Decitabine; first compound 0.006325 µM): 0.33 | relative viability (Bortezomib + Decitabine; first compound 0.02 µM): 0.278 | relative viability (Obatoclax + OSI-027; first compound 0.01 µM): 0.741 | relative viability (Obatoclax + OSI-027; first compound 0.03162 µM): 0.906 | relative viability (Obatoclax + OSI-027; first compound 0.1 µM): 0.803 | relative viability (Obatoclax + OSI-027; first compound 0.3162 µM): 0.518 | relative viability (Obatoclax + OSI-027; first compound 1 µM): 0.301 | relative viability (Obatoclax + Linsitinib; first compound 0.01 µM): 0.989 | relative viability (Obatoclax + Linsitinib; first compound 0.03162 µM): 0.964 | relative viability (Obatoclax + Linsitinib; first compound 0.1 µM): 0.998 | relative viability (Obatoclax + Linsitinib; first compound 0.3162 µM): 1.06 | relative viability (Obatoclax + Linsitinib; first compound 1 µM): 0.401

Calu-6
relative viability (Bortezomib + Crizotinib; first compound 0.0002 µM): 0.712 | relative viability (Bortezomib + Crizotinib; first compound 0.000632 µM): 0.777 | relative viability (Bortezomib + Crizotinib; first compound 0.002 µM): 0.81 | relative viability (Bortezomib + Crizotinib; first compound 0.006325 µM): 0.105 | relative viability (Bortezomib + Crizotinib; first compound 0.02 µM): 0.0708 | relative viability (Obatoclax + Linsitinib; first compound 0.01 µM): 0.95 | relative viability (Obatoclax + Linsitinib; first compound 0.03162 µM): 0.898 | relative viability (Obatoclax + Linsitinib; first compound 0.1 µM): 0.946 | relative viability (Obatoclax + Linsitinib; first compound 0.3162 µM): 0.852 | relative viability (Obatoclax + Linsitinib; first compound 1 µM): 0.652
